Measurements published in article doi:10.1101/2024.08.13.607785v1 (biorxiv, 2024).
Where two headings read alike, the source gives them in different places.

Tests used:
Experiment in all cases: biochemical
Design in all cases: species or system human cell line lysate
[1] = target: Mitogen-activated protein kinase 11 ; MAPK11 ; Q15759 (Homo sapiens, UniProt Q15759)
[2] = target: Casein kinase I isoform epsilon ; CSNK1E ; P49674 (Homo sapiens, UniProt P49674)
[3] = target: Serine/threonine-protein kinase pim-2 ; PIM2 ; Q9P1W9 (Homo sapiens, UniProt Q9P1W9)
Serine/threonine-protein kinase pim-2 ; PIM2 ; Q9P1W9, sequence (Q9P1W9 whole entry, one chain of several): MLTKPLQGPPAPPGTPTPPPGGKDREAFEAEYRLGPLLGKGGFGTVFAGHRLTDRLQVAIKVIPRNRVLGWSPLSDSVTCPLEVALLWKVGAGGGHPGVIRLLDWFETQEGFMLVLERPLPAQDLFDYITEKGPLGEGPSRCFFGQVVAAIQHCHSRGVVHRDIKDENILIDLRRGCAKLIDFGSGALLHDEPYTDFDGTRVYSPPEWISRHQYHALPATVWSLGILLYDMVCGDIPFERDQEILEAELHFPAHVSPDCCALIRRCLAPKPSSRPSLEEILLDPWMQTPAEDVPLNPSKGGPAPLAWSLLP

[4] = target: Serine/threonine-protein kinase LMTK2 ; LMTK2 ; Q8IWU2 (Homo sapiens, UniProt Q8IWU2)
Serine/threonine-protein kinase LMTK2 ; LMTK2 ; Q8IWU2, sequence (Q8IWU2 whole entry, one chain of several): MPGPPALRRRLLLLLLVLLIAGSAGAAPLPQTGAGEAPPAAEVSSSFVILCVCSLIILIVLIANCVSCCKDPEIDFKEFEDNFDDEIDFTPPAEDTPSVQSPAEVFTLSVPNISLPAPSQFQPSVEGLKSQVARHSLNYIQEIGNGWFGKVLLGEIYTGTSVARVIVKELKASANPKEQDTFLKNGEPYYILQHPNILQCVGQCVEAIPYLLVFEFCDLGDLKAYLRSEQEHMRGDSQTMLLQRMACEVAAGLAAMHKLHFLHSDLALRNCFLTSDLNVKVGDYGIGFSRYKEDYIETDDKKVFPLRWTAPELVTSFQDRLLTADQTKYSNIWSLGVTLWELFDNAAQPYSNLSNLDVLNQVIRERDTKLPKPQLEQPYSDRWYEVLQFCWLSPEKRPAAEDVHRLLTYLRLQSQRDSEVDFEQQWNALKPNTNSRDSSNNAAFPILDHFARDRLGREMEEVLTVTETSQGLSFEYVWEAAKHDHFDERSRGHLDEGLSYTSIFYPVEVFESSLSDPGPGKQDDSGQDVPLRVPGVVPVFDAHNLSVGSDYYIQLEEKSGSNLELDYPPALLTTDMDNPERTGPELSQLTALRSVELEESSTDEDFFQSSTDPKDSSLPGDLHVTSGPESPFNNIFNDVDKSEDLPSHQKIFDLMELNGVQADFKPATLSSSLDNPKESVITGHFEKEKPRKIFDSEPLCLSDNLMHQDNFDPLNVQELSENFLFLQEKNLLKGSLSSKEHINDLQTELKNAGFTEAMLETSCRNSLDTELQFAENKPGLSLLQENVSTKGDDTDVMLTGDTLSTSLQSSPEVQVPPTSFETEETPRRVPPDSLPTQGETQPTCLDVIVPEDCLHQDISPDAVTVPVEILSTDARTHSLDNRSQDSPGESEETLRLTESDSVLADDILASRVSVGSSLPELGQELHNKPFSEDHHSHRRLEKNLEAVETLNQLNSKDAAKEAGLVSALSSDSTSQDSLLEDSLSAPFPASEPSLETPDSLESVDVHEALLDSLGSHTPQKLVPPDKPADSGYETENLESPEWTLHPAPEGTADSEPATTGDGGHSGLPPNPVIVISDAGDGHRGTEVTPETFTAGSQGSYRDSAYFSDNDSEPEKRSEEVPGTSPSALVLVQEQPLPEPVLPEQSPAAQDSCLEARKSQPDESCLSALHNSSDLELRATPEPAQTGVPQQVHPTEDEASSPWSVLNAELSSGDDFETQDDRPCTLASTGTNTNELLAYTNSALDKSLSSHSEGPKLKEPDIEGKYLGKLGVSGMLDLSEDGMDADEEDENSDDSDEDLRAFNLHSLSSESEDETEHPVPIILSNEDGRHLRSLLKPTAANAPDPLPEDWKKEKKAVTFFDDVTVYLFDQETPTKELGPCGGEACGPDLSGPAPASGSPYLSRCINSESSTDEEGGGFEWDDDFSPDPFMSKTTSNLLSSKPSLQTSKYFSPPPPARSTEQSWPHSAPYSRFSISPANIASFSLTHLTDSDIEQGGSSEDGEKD

[5] = target: Nucleoside diphosphate kinase, mitochondrial ; NME4 ; O00746 (Homo sapiens, UniProt O00746)
Nucleoside diphosphate kinase, mitochondrial ; NME4 ; O00746, sequence (O00746 whole entry, canonical isoform): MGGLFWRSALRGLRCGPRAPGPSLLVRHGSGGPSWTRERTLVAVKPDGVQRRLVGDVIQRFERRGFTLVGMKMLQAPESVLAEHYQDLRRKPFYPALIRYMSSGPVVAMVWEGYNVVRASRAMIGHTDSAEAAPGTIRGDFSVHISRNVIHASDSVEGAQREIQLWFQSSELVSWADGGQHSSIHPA

[6] = target: Isoform 2 of Proto-oncogene tyrosine-protein kinase Src ; SRC ; P12931-2 (Homo sapiens, UniProt P12931)
[7] = target: Serine/threonine-protein kinase mTOR ; MTOR ; P42345 (Homo sapiens, UniProt P42345)
[8] = target: Tyrosine-protein kinase CSK ; CSK ; P41240 (Homo sapiens, UniProt P41240)
Tyrosine-protein kinase CSK ; CSK ; P41240, sequence (P41240 whole entry): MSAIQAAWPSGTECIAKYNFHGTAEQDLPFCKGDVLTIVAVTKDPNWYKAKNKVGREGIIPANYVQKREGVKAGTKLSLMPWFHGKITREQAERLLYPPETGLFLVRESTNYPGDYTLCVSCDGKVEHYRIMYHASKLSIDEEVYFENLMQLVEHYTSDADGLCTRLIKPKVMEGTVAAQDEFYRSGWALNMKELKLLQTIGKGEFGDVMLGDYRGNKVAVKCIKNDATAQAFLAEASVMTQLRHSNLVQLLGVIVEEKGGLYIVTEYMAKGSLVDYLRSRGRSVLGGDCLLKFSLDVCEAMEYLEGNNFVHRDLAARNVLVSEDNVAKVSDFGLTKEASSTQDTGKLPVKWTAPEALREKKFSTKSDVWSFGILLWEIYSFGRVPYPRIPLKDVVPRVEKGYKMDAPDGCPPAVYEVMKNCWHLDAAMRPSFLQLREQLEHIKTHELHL

[9] = target: RAC-alpha serine/threonine-protein kinase ; AKT1 ; P31749 (Homo sapiens, UniProt P31749)
RAC-alpha serine/threonine-protein kinase ; AKT1 ; P31749, sequence (P31749 whole entry, canonical isoform, one chain of several): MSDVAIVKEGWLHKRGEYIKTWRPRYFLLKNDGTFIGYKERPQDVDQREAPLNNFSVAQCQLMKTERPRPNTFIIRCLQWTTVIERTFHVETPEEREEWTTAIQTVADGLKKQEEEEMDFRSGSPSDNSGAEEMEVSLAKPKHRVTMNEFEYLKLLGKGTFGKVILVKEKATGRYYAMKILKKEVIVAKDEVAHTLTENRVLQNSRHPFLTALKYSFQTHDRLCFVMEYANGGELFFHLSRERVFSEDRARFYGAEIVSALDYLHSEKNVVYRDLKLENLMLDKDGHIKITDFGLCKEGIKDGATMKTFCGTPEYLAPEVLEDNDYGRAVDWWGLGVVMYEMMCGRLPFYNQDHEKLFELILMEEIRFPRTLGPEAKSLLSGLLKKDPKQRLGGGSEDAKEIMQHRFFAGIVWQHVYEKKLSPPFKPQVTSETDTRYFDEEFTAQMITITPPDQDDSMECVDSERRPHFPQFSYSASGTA

[10] = target: Isoform 1A of Mitogen-activated protein kinase kinase kinase 7 ; MAP3K7 ; O43318-2 (Homo sapiens, UniProt O43318)
Isoform 1A of Mitogen-activated protein kinase kinase kinase 7 ; MAP3K7 ; O43318-2, sequence (O43318 whole entry, canonical isoform): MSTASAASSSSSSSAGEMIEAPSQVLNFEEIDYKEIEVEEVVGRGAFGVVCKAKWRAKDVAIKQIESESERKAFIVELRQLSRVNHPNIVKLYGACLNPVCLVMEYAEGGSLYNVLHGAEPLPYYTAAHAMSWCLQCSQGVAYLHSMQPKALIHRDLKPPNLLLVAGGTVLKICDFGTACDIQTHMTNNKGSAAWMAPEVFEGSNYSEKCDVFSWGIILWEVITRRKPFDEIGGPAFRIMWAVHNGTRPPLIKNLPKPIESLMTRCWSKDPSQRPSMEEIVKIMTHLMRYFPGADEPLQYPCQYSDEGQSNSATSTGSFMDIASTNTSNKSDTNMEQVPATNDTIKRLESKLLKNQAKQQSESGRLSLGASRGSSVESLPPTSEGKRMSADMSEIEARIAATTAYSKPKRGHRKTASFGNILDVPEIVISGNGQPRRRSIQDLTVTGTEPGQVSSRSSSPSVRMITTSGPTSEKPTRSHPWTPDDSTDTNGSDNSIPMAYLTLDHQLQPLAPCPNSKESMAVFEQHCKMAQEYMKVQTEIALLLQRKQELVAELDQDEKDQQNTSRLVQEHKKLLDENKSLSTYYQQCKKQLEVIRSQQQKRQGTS

[11] = target: Ephrin type-A receptor 2 ; EPHA2 ; P29317 (Homo sapiens, UniProt P29317)
[12] = target: Phosphoinositide 3-kinase regulatory subunit 4 ; PIK3R4 ; Q99570 (Homo sapiens, UniProt Q99570)
Phosphoinositide 3-kinase regulatory subunit 4 ; PIK3R4 ; Q99570, sequence (Q99570 whole entry, one chain of several): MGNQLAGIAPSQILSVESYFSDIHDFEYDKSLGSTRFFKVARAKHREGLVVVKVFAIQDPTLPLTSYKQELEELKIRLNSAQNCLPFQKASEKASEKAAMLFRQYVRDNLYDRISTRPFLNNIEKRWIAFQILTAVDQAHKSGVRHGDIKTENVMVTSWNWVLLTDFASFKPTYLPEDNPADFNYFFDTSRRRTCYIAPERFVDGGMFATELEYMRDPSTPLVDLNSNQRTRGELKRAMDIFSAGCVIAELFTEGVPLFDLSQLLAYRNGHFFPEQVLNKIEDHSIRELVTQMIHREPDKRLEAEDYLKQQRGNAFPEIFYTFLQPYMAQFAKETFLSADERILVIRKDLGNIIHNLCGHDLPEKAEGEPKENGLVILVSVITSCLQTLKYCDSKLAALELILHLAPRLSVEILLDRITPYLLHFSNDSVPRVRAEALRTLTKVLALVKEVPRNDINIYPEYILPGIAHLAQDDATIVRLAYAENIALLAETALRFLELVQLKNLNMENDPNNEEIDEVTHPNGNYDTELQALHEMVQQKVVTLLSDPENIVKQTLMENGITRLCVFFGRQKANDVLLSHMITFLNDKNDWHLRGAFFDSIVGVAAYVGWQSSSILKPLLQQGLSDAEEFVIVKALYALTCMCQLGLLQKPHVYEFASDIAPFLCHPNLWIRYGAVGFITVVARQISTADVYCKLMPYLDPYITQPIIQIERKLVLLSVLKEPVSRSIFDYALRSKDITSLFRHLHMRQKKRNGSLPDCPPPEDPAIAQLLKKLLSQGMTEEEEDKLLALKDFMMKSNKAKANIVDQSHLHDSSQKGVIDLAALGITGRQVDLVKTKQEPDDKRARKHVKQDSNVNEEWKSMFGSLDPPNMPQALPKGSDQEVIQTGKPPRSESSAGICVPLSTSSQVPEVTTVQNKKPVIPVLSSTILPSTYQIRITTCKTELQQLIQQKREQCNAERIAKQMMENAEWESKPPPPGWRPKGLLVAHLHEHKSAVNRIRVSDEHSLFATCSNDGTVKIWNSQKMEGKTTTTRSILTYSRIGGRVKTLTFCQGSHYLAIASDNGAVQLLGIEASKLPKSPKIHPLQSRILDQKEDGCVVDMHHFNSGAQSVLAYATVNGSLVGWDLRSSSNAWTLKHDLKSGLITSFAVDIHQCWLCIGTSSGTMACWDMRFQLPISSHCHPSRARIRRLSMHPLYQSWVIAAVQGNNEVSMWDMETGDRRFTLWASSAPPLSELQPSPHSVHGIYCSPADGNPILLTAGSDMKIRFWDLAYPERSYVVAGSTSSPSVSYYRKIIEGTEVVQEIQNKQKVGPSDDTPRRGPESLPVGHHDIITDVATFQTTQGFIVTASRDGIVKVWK

[13] = target: T1, Cyclin-G-associated kinase ; GAK ; O14976 (Homo sapiens, UniProt O14976)
T1 sequence (O14976 1-1311): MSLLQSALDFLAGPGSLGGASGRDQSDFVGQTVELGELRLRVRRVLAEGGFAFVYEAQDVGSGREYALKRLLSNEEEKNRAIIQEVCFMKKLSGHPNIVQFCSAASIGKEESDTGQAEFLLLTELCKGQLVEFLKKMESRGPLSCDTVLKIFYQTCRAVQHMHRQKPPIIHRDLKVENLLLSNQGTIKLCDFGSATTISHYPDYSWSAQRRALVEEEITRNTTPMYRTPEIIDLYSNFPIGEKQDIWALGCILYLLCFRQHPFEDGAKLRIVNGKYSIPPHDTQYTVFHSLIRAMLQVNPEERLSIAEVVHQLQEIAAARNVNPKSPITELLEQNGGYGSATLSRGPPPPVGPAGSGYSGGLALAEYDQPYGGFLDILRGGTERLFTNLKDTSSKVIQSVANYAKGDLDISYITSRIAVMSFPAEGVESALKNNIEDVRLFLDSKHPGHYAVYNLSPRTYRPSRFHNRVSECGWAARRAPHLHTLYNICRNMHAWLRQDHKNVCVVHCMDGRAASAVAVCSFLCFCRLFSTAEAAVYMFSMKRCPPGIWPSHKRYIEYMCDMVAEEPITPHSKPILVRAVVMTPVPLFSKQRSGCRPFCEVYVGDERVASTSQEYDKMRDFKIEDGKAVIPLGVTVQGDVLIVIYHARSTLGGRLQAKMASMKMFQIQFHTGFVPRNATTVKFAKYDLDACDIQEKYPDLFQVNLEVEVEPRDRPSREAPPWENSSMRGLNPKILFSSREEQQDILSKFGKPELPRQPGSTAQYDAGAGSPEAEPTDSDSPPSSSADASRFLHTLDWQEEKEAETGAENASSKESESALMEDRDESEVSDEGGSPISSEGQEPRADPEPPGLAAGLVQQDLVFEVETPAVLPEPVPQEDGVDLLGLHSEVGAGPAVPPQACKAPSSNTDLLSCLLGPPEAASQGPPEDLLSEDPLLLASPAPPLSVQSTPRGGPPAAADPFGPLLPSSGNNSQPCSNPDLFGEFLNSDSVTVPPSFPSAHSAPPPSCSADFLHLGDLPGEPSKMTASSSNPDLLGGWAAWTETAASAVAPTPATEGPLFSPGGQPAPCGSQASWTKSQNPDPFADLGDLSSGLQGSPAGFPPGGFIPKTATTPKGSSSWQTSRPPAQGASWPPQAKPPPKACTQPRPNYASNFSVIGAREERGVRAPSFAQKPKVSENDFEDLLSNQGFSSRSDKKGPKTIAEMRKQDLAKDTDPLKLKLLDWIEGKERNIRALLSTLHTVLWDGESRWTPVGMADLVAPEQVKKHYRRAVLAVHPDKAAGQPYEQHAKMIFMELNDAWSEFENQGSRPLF

[14] = target: Proto-oncogene tyrosine-protein kinase receptor Ret ; RET ; P07949 (Homo sapiens, UniProt P07949)
[15] = read-out: BAY-1143572 (10 µM) / %Intensity relative to DMSO
[16] = read-out: BAY-1251152 (10 µM) / %Intensity relative to DMSO

For `COc1cc(F)ccc1-c1ncnc(Nc2cccc(C[S@](C)(=N)=O)c2)n1` [BAY-1143572], which remaining activity at 10 µM [1, 15] is on record?
The remaining activity at 10 µM was 116%.

What about the remaining activity at 10 µM [2, 15] of the same molecule?
Its remaining activity at 10 µM is 111%.

What about the remaining activity at 10 µM [3, 15] of the same molecule?
The remaining activity at 10 µM was 132%.

What about the remaining activity at 10 µM [4, 15] of the same molecule?
Its remaining activity at 10 µM is 128%.

What about the remaining activity at 10 µM [5, 15] of the same molecule?
Its remaining activity at 10 µM is 79.4%.

And the remaining activity at 10 µM [6, 15]?
The remaining activity at 10 µM was 102%.

And the remaining activity at 10 µM [7, 15]?
The remaining activity at 10 µM was 98.9%.

And the remaining activity at 10 µM [8, 15]?
Its remaining activity at 10 µM is 112%.

What about the remaining activity at 10 µM [9, 15] of the same molecule?
Its remaining activity at 10 µM is 128%.

And the remaining activity at 10 µM [10, 15]?
Its remaining activity at 10 µM is 116%.

What about the remaining activity at 10 µM [11, 15] of the same molecule?
The remaining activity at 10 µM was 84.9%.

What about the remaining activity at 10 µM [12, 15] of the same molecule?
Its remaining activity at 10 µM is 101%.

And the remaining activity at 10 µM [13, 15]?
Its remaining activity at 10 µM is 96.6%.

What about the remaining activity at 10 µM [14, 15] of the same molecule?
The remaining activity at 10 µM was 97%.

For `COc1cc(F)ccc1-c1cc(Nc2cc(CS(C)(=N)=O)ccn2)ncc1F` (stereo not shown) [BAY-1251152], which remaining activity at 10 µM [1, 16] is on record?
Its remaining activity at 10 µM is 107%.

What about the remaining activity at 10 µM [2, 16] of the same molecule?
Its remaining activity at 10 µM is 101%.

What about the remaining activity at 10 µM [3, 16] of the same molecule?
Its remaining activity at 10 µM is 102%.

What about the remaining activity at 10 µM [4, 16] of the same molecule?
The remaining activity at 10 µM was 126%.

And the remaining activity at 10 µM [5, 16]?
The remaining activity at 10 µM was 94.8%.

What about the remaining activity at 10 µM [6, 16] of the same molecule?
The remaining activity at 10 µM was 112%.

What about the remaining activity at 10 µM [7, 16] of the same molecule?
Its remaining activity at 10 µM is 103%.

And the remaining activity at 10 µM [8, 16]?
Its remaining activity at 10 µM is 106%.

What about the remaining activity at 10 µM [9, 16] of the same molecule?
The remaining activity at 10 µM was 125%.

What about the remaining activity at 10 µM [10, 16] of the same molecule?
The remaining activity at 10 µM was 113%.

What about the remaining activity at 10 µM [11, 16] of the same molecule?
The remaining activity at 10 µM was 103%.

And the remaining activity at 10 µM [12, 16]?
The remaining activity at 10 µM was 107%.

And the remaining activity at 10 µM [13, 16]?
Its remaining activity at 10 µM is 100%.

And the remaining activity at 10 µM [14, 16]?
Its remaining activity at 10 µM is 87.9%.
